Measured values from PMC11230868, “eIF2β zinc-binding domain interacts with the eIF2γ subunit through the guanine nucleotide binding interface to promote Met-tRNAi^Met binding” (Bioscience Reports, 2024).

How the values were obtained:
eIF2 complex (eIF2αβγ) = molecular target: T1, eIF2 complex (eIF2αβγ) (Saccharomyces cerevisiae, UniProt P32481); assay: fluorescence anisotropy titration of protein; type: binding; conditions: labelled compound at 100 nM; pH 7.5, 110 mM K acetate, 2.5 mM Mg acetate, 26 °C; Hill fit n = 1
T1 construct: gene GCD11; full-length heterotrimer, 8xHis tag on N-terminus of eIF2γ (GCD11), overexpressed from pRS425_GCD11, SUI3, SUI2 in yeast YP920 (sui2Δ sui3Δ gcd11Δ); Ni-NTA, heparin and cation exchange; with Eukaryotic translation initiation factor 2 subunit alpha

[1] = molecular target: T2, 3xHA-tagged eIF2β T238A mutant (yeast, UniProt P09064 1-285, T238A); assay: co-IP; Co-IP of the 3xHA-tagged eIF2β subunit from yeast extract (Supplementary Figure S1); conditions: partners not purified
T2 construct: eIF2β, yeast SUI3 ORF + terminator with T238A, cloned behind SUI3 promoter + 3xHA; also called 3xHA-SUI3-T238A; source: yeast, single-copy plasmid, in whole-cell extract; not shown: 3xHA, N-terminal, kept
T2 sequence (looked up): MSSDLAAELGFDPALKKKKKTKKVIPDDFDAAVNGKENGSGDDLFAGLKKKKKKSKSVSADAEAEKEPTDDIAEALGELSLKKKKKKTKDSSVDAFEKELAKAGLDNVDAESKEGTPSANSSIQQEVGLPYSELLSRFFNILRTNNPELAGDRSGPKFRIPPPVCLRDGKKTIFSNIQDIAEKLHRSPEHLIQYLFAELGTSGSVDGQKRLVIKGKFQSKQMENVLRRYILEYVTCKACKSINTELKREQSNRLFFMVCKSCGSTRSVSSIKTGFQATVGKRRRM

[2] = molecular target: T3, N-terminal 3xHA-tagged eIF2γ (wild type) (yeast, UniProt P32481 1-527); assay: co-IP; 3xHA-eIF2γ precipitated with anti-HA agarose beads from 300 μg yeast WCE (YP912), 4°C, 1 h; 20 mM HEPES pH 7.5, 100 mM KCl, 5 mM MgCl2, 5 mM NaF, 1 mM EDTA, 0.2% NP-40, 1% BSA; Western blot, bands normalised to the anti-HA band; conditions: partners not purified
T3 construct: eIF2γ, yeast GCD11; GCD11 ORF + terminator cloned behind GCD11 promoter + 3xHA; also called 3xHA eIF2γ; eIF2γ^WT; source: yeast strain YP912 (gcd11Δ, sui3Δ), single-copy plasmid, in whole-cell extract; not shown: 3xHA, N-terminal, kept
T3 sequence (P32481 whole entry): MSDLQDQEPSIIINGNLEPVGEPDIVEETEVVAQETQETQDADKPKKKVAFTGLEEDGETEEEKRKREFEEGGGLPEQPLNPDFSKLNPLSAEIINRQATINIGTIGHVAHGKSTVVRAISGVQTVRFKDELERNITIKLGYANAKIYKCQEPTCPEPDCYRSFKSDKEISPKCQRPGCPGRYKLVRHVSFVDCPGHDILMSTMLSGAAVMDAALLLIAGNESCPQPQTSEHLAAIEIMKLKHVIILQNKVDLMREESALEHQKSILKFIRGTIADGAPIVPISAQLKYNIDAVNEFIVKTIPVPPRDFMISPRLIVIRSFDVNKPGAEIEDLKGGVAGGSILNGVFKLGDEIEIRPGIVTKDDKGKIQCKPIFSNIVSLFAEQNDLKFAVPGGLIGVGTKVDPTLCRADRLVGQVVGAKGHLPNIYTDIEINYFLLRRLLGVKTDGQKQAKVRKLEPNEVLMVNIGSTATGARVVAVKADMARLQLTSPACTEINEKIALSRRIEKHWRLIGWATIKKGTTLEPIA

T1 sequence (P32481 whole entry, one chain of several): as the sequence (P32481 whole entry) above
T1 sequence (P09064 whole entry partner, one chain of several): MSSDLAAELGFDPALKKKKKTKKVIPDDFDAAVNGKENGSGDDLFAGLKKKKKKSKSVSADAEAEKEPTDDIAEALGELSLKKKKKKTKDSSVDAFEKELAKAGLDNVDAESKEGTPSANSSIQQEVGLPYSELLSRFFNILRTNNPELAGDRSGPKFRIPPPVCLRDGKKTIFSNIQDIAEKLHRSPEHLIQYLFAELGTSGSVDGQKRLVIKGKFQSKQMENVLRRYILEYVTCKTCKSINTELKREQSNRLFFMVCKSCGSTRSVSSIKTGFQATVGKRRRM

GDPγS-BODIPY
Kd (eIF2 complex (eIF2αβγ)): 1400 nM

GDP-BODIPY
Kd (eIF2 complex (eIF2αβγ)): 36.7 nM

B1: eIF2α subunit (natural protein, yeast, UniProt P20459 1-304, looked up)
chain: MSTSHCRFYENKYPEIDDIVMVNVQQIAEMGAYVKLLEYDNIEGMILLSELSRRRIRSIQKLIRVGKNDVAVVLRVDKEKGYIDLSKRRVSSEDIIKCEEKYQKSKTVHSILRYCAEKFQIPLEELYKTIAWPLSRKFGHAYEAFKLSIIDETVWEGIEPPSKDVLDELKNYISKRLTPQAVKIRADVEVSCFSYEGIDAIKDALKSAEDMSTEQMQVKVKLVAAPLYVLTTQALDKQKGIEQLESAIEKITEVITKYGGVCNITMPPKAVTATEDAELQALLESKELDNRSDSEDDEDESDDE
notes: eIF2α, yeast SUI2; chromosomal gene in the co-IP strains, whole SUI2 gene on pRS425 for the purified complex; also called SUI2; source: endogenous, yeast whole-cell extract (YP912); yeast YP920, high-copy pRS425 plasmid, co-purified in the 8xHis-eIF2 complex
fold change of binding against the 3xHA-eIF2β wild type [1]: 1.3 fold | fold change of binding in the eIF2β^T238A strain against the eIF2β^WT strain [2]: ~4.5 fold
